This assay concerns the target T1, MTP (Rattus norvegicus, UniProt D4A1W8).
T1 construct: endogenous in cells; host or cells: rat primary hepatocytes (male Sprague-Dawley), cell lysate
T1 sequence (D4A1W8 22-896): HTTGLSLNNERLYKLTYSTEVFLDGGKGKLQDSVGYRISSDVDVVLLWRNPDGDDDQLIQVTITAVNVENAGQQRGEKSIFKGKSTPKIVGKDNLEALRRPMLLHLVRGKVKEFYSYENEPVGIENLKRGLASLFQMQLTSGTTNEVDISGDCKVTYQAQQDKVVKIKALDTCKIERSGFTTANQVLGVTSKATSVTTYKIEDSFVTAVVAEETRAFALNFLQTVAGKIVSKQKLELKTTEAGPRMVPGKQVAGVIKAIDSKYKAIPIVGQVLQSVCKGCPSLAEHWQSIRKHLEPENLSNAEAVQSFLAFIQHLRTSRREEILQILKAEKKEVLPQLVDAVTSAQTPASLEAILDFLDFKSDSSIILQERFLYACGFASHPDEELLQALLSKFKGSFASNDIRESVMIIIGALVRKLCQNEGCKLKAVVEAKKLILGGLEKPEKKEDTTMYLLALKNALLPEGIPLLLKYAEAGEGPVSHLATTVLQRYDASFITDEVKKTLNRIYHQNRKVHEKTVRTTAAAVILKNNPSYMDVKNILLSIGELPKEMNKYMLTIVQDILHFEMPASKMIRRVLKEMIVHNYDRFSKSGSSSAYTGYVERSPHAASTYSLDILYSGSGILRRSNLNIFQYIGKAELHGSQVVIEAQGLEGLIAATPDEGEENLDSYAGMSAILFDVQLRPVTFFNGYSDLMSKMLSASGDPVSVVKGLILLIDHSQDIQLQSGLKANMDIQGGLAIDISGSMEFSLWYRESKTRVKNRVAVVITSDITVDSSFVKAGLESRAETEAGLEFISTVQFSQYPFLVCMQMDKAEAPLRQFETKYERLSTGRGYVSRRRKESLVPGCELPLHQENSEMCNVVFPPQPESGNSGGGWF
T1 sequence (P04785 20-509 partner): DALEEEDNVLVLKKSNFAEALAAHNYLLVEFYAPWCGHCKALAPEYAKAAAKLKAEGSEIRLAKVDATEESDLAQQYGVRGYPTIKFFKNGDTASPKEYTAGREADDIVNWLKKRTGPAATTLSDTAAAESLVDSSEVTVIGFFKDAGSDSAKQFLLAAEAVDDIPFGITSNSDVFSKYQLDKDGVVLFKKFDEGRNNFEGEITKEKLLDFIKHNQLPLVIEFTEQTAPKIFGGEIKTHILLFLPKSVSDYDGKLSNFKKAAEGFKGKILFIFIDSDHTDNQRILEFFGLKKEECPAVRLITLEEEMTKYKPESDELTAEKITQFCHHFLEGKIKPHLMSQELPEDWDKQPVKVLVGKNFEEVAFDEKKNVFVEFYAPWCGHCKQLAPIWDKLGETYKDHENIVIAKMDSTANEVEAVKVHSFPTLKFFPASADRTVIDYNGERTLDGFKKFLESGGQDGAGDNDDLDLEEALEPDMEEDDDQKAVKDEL
In words: MTP activity in lysates of fatty acid-pretreated rat primary hepatocytes. The format is biochemical. Conditions: hepatocytes pre-treated 6 hr with BSA, OA or EPA. As to the method: Three methods were used to assess possible effects of Ω-3 fatty acids on cellular MTP function. First, rat primary hepatocytes were incubated with BSA, OA, or EPA, and then MTP activity in cell lysates was measured using a fluorescent assay (Roar Biomedical, New York, NY). Second, to determine if lipid classes synthesized in the presence of OA or Ω-3 fatty acid are equivalent substrates for MTP, primary rat hepatocytes or HepG2 cells were incubated with tritiated OA or EPA, total cellular lipids were extracted into isopropanol, and biosynthetically labeled cholesteryl ester, triglyceride, and phospholipids were separated by preparative thin layer chromatography. […] Transfer of the labeled lipids to acceptor vesicles in the presence of 50 μg of purified bovine MTP was measured as described in Jamil, H. et al (1995) J Biol Chem 270(12), 6549-54.
First, it was necessary to test the possibility that Ω-3 fatty acids stimulate apob degradation by impeding MTP-dependent early lipidation, thereby targeting apoB to proteasomes. Rat primary hepatocytes were pre-treated for 6 hr with BSA, OA, or EPA, and then the MTP activity in lysates of these cells was assessed using artificial donor and acceptor vesicles, with [^14C]triolein as the MTP substrate, as described in Jamil, H. et al. (1995) J Biol Chem 270(12), 6549-54.

The record followed here is US20030170643A1, “Regulation of apoB treatment and drug screening for cardiovascular and metabolic disorders or syndromes” (priority 1999, published 2003).

In the case of `CCCCCCCC/C=C\CCCCCCCC(=O)O` [OA, oleic acid], the “MTP-mediated transfer of labeled triolein in cell lysates” value is reported as “No difference”.
